# Laboratory results published in the supplement of paper PMC5908809.
# Tests used:
# Experiment in all cases: relative IC50 (inflection point of fitted viability curve, relative to fitted max inhibition); higher = less sensitive
# Details in all cases: 72 h
# IMC-1 (IL-2 20 ng/mL) = test system: IMC-1 (IL-2 20 ng/mL)
# Method: (§1)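 Drug sensitivity and resistance testing: 5 concentrations over a 10,000-fold range, 72 h at 37 °C, viability by CellTiter-Glo normalised to DMSO and benzethonium chloride controls. IC50 is the inflection point of a logistic fit (min fixed at 0, max fitted), so it is relative to the fitted maximal inhibition. Kept only where fitted max inhibition is at least 50%.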
# NKL (IL-2 2.5 ng/mL) = test system: NKL (IL-2 2.5 ng/mL)
# Method: as §1
# KHYG-1 (IL-2 2.5 ng/mL) = test system: KHYG-1 (IL-2 2.5 ng/mL)
# Method: as §1
# SNK-6 (IL-2 2.5 ng/mL) = test system: SNK-6 (IL-2 2.5 ng/mL)
# Method: as §1
# DERL-7 (IL-2 2.5 ng/mL) = test system: DERL-7 (IL-2 2.5 ng/mL)
# Method: as §1
# YT (IL-2 2.5 ng/mL) = test system: YT (IL-2 2.5 ng/mL)
# Method: as §1
# NK-92 (IL-2 2.5 ng/mL) = test system: NK-92 (IL-2 2.5 ng/mL)
# Method: as §1
# NK-YS (IL-2 2.5 ng/mL) = test system: NK-YS (IL-2 2.5 ng/mL)
# Method: as §1
# KAI3 (IL-2 2.5 ng/mL) = test system: KAI3 (IL-2 2.5 ng/mL)
# Method: as §1
# [1] = test system: normal primary NK cells, pool 1 (3 donors), resting (IL-2 0 ng/mL)
# Method: as §1
Structure (SMILES),relative IC50 (IMC-1 (IL-2 20 ng/mL)) [nM],relative IC50 (NKL (IL-2 2.5 ng/mL)) [nM],relative IC50 (KHYG-1 (IL-2 2.5 ng/mL)) [nM],relative IC50 (SNK-6 (IL-2 2.5 ng/mL)) [nM],relative IC50 (DERL-7 (IL-2 2.5 ng/mL)) [nM],relative IC50 (YT (IL-2 2.5 ng/mL)) [nM],relative IC50 (NK-92 (IL-2 2.5 ng/mL)) [nM],relative IC50 (NK-YS (IL-2 2.5 ng/mL)) [nM],relative IC50 (KAI3 (IL-2 2.5 ng/mL)) [nM],relative IC50 [1] [µM]
CCc1cc(Nc2nccc(-c3c(-c4ccc(OC)c(C(=O)Nc5c(F)cccc5F)c4)nc4ccccn34)n2)c(OC)cc1N1CCC(N2CCN(S(C)(=O)=O)CC2)CC1,> 10000,> 10000,> 10000,> 10000,,,,,,
CNC(=O)c1ccc(C)c(-n2c(C)cc(OCc3ccc(F)cc3F)c(Br)c2=O)c1,,,,> 1000,,,,,,
CNc1nc(-c2ccc3c(N)n[nH]c3c2)cc(N2C[C@@H](C(=O)NC3CCCCC3)CC[C@H]2C)n1,> 10000,,,> 10000,248,,,,,
COc1cc2ncnc(Oc3cccc(NC(=O)Nc4cc(C(C)(C)C(F)(F)F)on4)c3)c2cc1OC,,,,> 10000,,,,,,
CS(=O)(=O)N1CCc2c(-c3cnc(N)nc3)nc(N3CCOCC3)nc21,,451,,,1000,1290,316,940,384,
Cc1ccc(C(=O)N(CCCN)[C@@H](c2oc3cc(Cl)ccc3c(=O)c2Cc2ccccc2)C(C)C)cc1,3.17,5.2,3.04,4.13,21.8,24.2,20.9,3.75,10.9,
O=C(NOCC1CC1)c1ccc(F)c(F)c1Nc1ccc(I)cc1Cl,2220,153,851,3940,1310,1850,3220,1650,608,
COc1ccc(S(=O)(=O)Nc2cccnc2Nc2ccc(O)cc2)cc1 [ABT-751],283,381,196,76.1,294,207,122,135,243,
CON(C)C(=O)N1N=C(c2cc(F)ccc2F)S[C@@]1(CCCN)c1ccccc1 [ARRY-520],,5.25,3.25,2.57,3.14,22.9,10.2,3.86,,> 1
N[C@@H]1CCCN(c2c(/C=C3\SC(=O)NC3=O)cccc2-c2ccccc2)C1 [AZD1208],> 10000,,,,304,,,,,
COc1ccc(-c2ccc3c(N4CCOC[C@@H]4C)nc(N4CCOC[C@@H]4C)nc3n2)cc1CO [AZD8055],,5.08,135,16.3,21.7,55.6,121,77.3,10.3,
C[C@]12CC[C@H](O)CC1=CC[C@@H]1[C@@H]2CC[C@]2(C)C(c3cccnc3)=CC[C@@H]12 [Abiraterone],,,,> 5000,,,,,,
Cc1ccc(NC(=O)c2ccc(CN3CC[C@H](N(C)C)C3)c(C(F)(F)F)c2)cc1Nc1nccc(-c2cncnc2)n1 [Bafetinib],,136,,,,,,,,
CCCCCOC(=O)Nc1nc(=O)n([C@@H]2O[C@H](C)[C@@H](O)[C@H]2O)cc1F [Capecitabine],> 10000,,> 10000,1630,2520,,,,1080,
C[C@@H](Oc1cc(-c2cnn(C3CCNCC3)c2)cnc1N)c1c(Cl)ccc(F)c1Cl [Crizotinib],,,,> 1000,,,,,,
COc1cc2ncnc(Nc3ccc(F)c(Cl)c3)c2cc1NC(=O)/C=C/CN1CCCCC1 [Dacomitinib],,,,,,,,,,0.404
Cc1nc(Nc2ncc(C(=O)Nc3c(C)cccc3Cl)s2)cc(N2CCN(CCO)CC2)n1 [Dasatinib],,49.8,,,,,,,,
C#Cc1cccc(Nc2ncnc3cc(OCCOC)c(OCCOC)cc23)c1 [Erlotinib],,,,,,,,,1300,3.36
CON(C)C(=O)N1N=C(c2cc(F)ccc2F)S[C@@]1(CCCN)c1ccccc1 [Filanesib],3.15,,,,,,,,,
COc1cc2c(Oc3ccc(NC(=O)C4(C(=O)Nc5ccc(F)cc5)CC4)cc3F)ccnc2cc1OCCCN1CCOCC1 [Foretinib],,,,,369,,,191,,
Nc1ccn([C@@H]2O[C@H](CO)[C@@H](O)C2(F)F)c(=O)n1 [Gemcitabine],3.08,0.73,2.14,6.48,10.9,15.3,2.77,4.67,5.17,
CN1CCN(C2CCN(C(=O)Nc3cc(Oc4ccc(NC(=O)C5(C(=O)Nc6ccc(F)cc6)CC5)c(F)c4)ccn3)CC2)CC1 [Golvatinib],,,715,,,,,,,
CC(C)C[C@H](NC(=O)[C@@H](COC(C)(C)C)NC(=O)[C@H](Cc1ccc(O)cc1)NC(=O)[C@H](CO)NC(=O)[C@H](Cc1c[nH]c2ccccc12)NC(=O)[C@H](Cc1cnc[nH]1)NC(=O)[C@@H]1CCC(=O)N1)C(=O)N[C@@H](CCCNC(=N)N)C(=O)N1CCC[C@H]1C(=O)NNC(N)=O [Goserelin],,,,> 10000,,,,,,
CC(C)n1nc(-c2ccc3oc(N)nc3c2)c2c(N)ncnc21 [INK128],,8.91,124,,15.1,28.2,21.7,51,22.8,
Nc1cccc2c1CN(C1CCC(=O)NC1=O)C2=O (configuration not stated) [Lenalidomide],,,,3460,> 100000,,,,17100,6.06
